In patent US10233186B2, “Inhibitors of activin receptor-like kinase” (BLUEPRINT MEDICINES CORPORATION, priority 2016, dated 2019):

Biological target: T1, ALK2 R206H (GST-tagged mutant ALK2) (Homo sapiens, UniProt Q04771, R206H)
T1 construct: purchased Carna Bioscience or ThermoFisher 09-148 or PV6232
T1 sequence (Q04771 21-509 R206H): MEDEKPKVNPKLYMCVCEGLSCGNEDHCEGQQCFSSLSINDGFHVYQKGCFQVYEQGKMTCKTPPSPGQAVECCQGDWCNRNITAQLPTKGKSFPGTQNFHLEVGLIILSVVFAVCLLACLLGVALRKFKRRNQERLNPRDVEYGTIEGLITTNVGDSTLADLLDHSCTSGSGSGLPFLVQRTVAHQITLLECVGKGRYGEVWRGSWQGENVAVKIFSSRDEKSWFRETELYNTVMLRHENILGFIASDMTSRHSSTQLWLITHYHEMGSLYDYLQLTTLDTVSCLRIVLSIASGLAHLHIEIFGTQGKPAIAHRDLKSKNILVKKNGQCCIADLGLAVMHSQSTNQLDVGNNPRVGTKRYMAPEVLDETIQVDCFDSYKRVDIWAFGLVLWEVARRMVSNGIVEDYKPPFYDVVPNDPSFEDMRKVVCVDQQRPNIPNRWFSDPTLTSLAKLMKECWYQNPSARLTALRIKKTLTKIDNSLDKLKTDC
Test: ALK binding assay (LANTHASCREEN TR-FRET competitive binding, displacement of Kinase Tracer 178)
Settings: ALK2 R206H, LANTHASCREEN TR-FRET competitive binding; read-out: Binding Assay (IC50)
Description: Binding assays were conducted using the LANTHASCREEN® technology (ThermoFisher Scientific). LANTHASCREEN® is a competitive binding, displacement assay where the assumed steady state occupancy of the binding site is measured using a time-resolved, fluorescence energy transfer (TR-FRET) readout between a fluorescent tracer and Europium (Eu)-tagged antibody specific for the kinase or expression tag (e.g. GST) of interest. Displacement of the tracer by a compound of the disclosure reduces, and is directly proportional to, the TR-FRET between the tracer and the antibody. Tracer was used at a concentration equal to or near to its Kd for the kinase.
In all cases, the kinase (2-5 nM) was mixed with Eu-tagged antibody (10 nM) mix and tracer (50 nM) were incubated with test compound titrations prepared in 100% DMSO (1% DMSO final) for 30 minutes at room temperature. All reagents and compounds were dissolved in Kinase Buffer A (ThermoFisher) to achieve the final concentration. […] This readout was normalized to 0% and 100% inhibited control wells, plotted against inhibitor concentration, and fitted to a 4-parameter log dose response curve.
Blank values in the table indicate that the particular compound was not tested in this assay.

Row | SMILES | IC50 [nM]
1 | CCN1CCC(c2ccc(-c3cc4c(N5CCN(C(=O)C(C)=O)CC5)ccnn4c3)cc2)CC1 [Compound 215] | 10 to 50
2 | O=C(C1CC1)N1CCN(c2ccnn3cc(-c4ccc(C5=CCNCC5)cc4)cc23)CC1 [Compound 458] | < 10
3 | O=C(C1CC1)N1CCN(c2ccnn3cc(-c4ccc(CNCCO)cc4)cc23)CC1 [Compound 756] | < 10
4 | C[C@@H]1CNC[C@@H](c2ccc(-c3cc4c(N5CCN(C(=O)C6CC6)CC5)ccnn4c3)cc2)O1 [Compound 168] | 10 to 50
5 | CO[C@@]1(c2ccc(-c3cc4c(N5CCN(C(=O)NC(C)C)CC5)ccnn4c3)cc2F)CCCNC1 [Compound 807] | < 10
6 | CCO[C@]1(c2ccc(-c3cc4c(N5CCN(C(=O)NC(C)C)CC5)ccnn4c3)nc2)CCCN(C(C)C)C1 [Compound 717] | < 10
7 | N[C@H]1CCc2cc(-c3cc4c(N5CCN(C(=O)C6CC6)CC5)ccnn4c3)ccc21 [Compound 449] | < 10
8 | CCN1CCN(c2ccc(-c3cc4c(N5CCN6C(=O)CCC6C5)ccnn4c3)cc2)CC1 (stereo not drawn) [Compound 157, 2-(6-(4-(4-ethylpiperazin-1-yl)phenyl)pyrrolo[1,2-b]pyridazin-4-yl)hexahydropyrrolo[1,2-a]pyrazin-6(7H)-one] | > 50
9 | CCOC(=O)N1CCN(c2ccnn3cc(-c4ccc([C@@]5(C)CCCN5C(C)C)cc4)cc23)CC1 [Compound 536] | < 10
10 | CCN1CCC(c2ccc(-c3cc4c(N5CCN(C(=O)C6(C(F)F)CC6)CC5)ccnn4c3)cc2)C1 (stereo not drawn) [Compound 356] | 10 to 50
11 | CCN1CCN(c2ccc(-c3cc4c(N5CCN(C(=O)C6(c7cccc(F)c7)CC6)CC5)ccnn4c3)cc2)CC1 [Compound 443] | 10 to 50
12 | CC(C)NC(=O)N1CCN(c2ccnn3cc(-c4ccc(C5CCN(C(C)C)CC5)cc4Cl)cc23)CC1 [Compound 700] | < 10
13 | CC(C)N1CCC(c2ccc(-c3cc4c(N5CCN(C(=O)C6(C7CC7)CC6)CC5)ccnn4c3)cc2)CC1 [Compound 414] | 10 to 50
14 | CCNC(=O)N1CCN(c2ccnn3cc(-c4ccc([C@@]5(OC)CCCN(C(C)C)C5)cc4)cc23)CC1 [Compound 640] | < 10
15 | CCN1CCC(c2ccc(-c3cc4c(N5CCN(C(=O)C6(C(F)(F)F)CC6)CC5)ccnn4c3)cc2)C1 (stereo not drawn) [Compound 410] | > 50
16 | CN1CCn2c(cnc2-c2cc3c(N4CCN(C(=O)C5CC5)CC4)ccnn3c2)C1 [Compound 106] | > 50
17 | CCS(=O)(=O)c1ccc(-c2cc3c(N4CCN(C(=O)C5CC5)CC4)ccnn3c2)cc1 [Compound 765] | < 10
18 | CCNC(=O)N1CC2CC(C1)N2c1ccnn2cc(-c3ccc(C4CCN(C(C)C)CC4)cc3)cc12 [Compound 319] | > 50
19 | CCN1CCC(c2ccc(-c3cc4c(N5CCN(C(=O)C6(C(C)=O)CC6)CC5)ccnn4c3)cc2)C1 (stereo not drawn) [Compound 311] | > 50

Row | SMILES | IC50 [nM]
20 | CCN1CCN(c2ccc(-c3cc4c(N5CCN(C(=O)N6CC(OC)C6)CC5)ccnn4c3)cc2)CC1 [Compound 397] | 10 to 50
21 | CCOC(=O)N1CCN(c2ccnn3cc(-c4cnc(C5CCN(C(C)C)CC5)nc4)cc23)CC1 [Compound 552] | < 10
22 | CCN(CC)C(=O)N1CCN(c2ccnn3cc(-c4ccc(C5CCN(C(C)C)CC5)cc4)cc23)CC1 [Compound 392] | 10 to 50
23 | O=C(C1CC1)N1CCN(c2ccnn3cc(-c4ccc(N5CCNCC5C(F)(F)F)cc4)cc23)CC1 (stereo not drawn) [Compound 374, cyclopropyl(4-(6-(4-(2-(trifluoromethyl)piperazin-1-yl)phenyl)pyrrolo[1,2-b]pyridazin-4-yl)piperazin-1-yl)methanone] | 10 to 50
24 | O=C(C1CC1)N1CCN(c2ccnn3cc(-c4ccc(C5CC6(CNC6)C5)cc4)cc23)CC1 [Compound 767] | < 10
25 | CC(C)N1CCC(c2ccc(-c3cc4c(N5CCN(C(=O)N6CC7(COC7)C6)CC5)ccnn4c3)cc2)CC1 [Compound 841] | 10 to 50
26 | CC(C)N1CCC(c2ccc(-c3cc4c(N5CCN(C(=O)C6COC6)CC5)ccnn4c3)cc2)CC1 [Compound 574] | < 10
27 | O=C(C1CC1)N1CCN(c2ccnn3cc(-c4ccc([C@@H]5CCNC[C@@H]5F)cc4)cc23)CC1 [Compound 176] | 10 to 50
28 | CCN(C)C(=O)N1CCN(c2ccnn3cc(-c4ccc(C5CCN(C(C)C)CC5)cc4)cc23)CC1 [Compound 342] | 10 to 50
29 | N[C@H]1CCN(c2ccc(-c3cc4c(N5CCN(C(=O)C6CC6)CC5)ccnn4c3)cc2)C1 [Compound 461] | < 10
30 | O=C(C1CC1)N1CCN(c2ccnn3cc(-c4nc5c(s4)CCNC5)cc23)CC1 [Compound 108] | 10 to 50
31 | CCN1CCN(c2ccc(-c3cc4c(N5CCN(C(=O)C6CC6)C(C(F)F)C5)ccnn4c3)cc2)CC1 (stereo not drawn) [Compound 403, cyclopropyl(2-(difluoromethyl)-4-(6-(4-(4-ethylpiperazin-1-yl)phenyl)pyrrolo[1,2-b]pyridazin-4-yl)piperazin-1-yl)methanone] | > 50
32 | CCN1CCN(c2ccc(-c3cc4c(N5CCN(C(=O)N6CC7(COC7)C6)CC5)ccnn4c3)cc2)CC1 [Compound 417] | 10 to 50
33 | CCN1CCN(c2ccc(-c3cc4c(N5CCN(C(=O)C6(c7ccsc7)CC6)CC5)ccnn4c3)cc2)CC1 [Compound 439] | 10 to 50
34 | CC(C)N1CCC(c2ccc(-c3cc4c(N5CCN(C(=O)N6CCC67COC7)CC5)ccnn4c3)cc2)CC1 [Compound 842] | 10 to 50
35 | COC1(c2ccc(-c3cc4c(N5CCN(C(=O)[C@H]6C[C@H](C#N)C6)CC5)ccnn4c3)nc2)CCN([C@H](C)CO)CC1 [Compound 742] | < 10
36 | CCOC(=O)N1CCN(c2ccnn3cc(-c4ncc(N5CCN(C(C)C)CC5)cn4)cc23)CC1 [Compound 555] | < 10
37 | CCNC(=O)N1CCN(c2ccnn3cc(-c4ccc([C@]5(OC)CCCN(C(C)C)C5)cc4)cc23)CC1 [Compound 639] | < 10
38 | CO[C@]1(c2ccc(-c3cc4c(N5CCN(C(=O)NC(C)C)CC5)ccnn4c3)cc2F)CCCNC1 [Compound 806] | < 10

Row | SMILES | IC50 [nM]
39 | CC(C)NC(=O)N1CCN(c2ccnn3cc(-c4ccc([C@]5(O)CCN(C(C)C)C5)cn4)cc23)CC1 [Compound 607] | < 10
40 | CC(C)N1CCC(c2ccc(-c3cc4c(N5CCN(C(=O)OCC(C)(C)C)CC5)ccnn4c3)cc2)CC1 [Compound 670] | < 10
41 | O=C(C1CC1)N1CCN(c2ccnn3cc(-c4ccc(N5CCC6(CCNC6)C5)cc4)cc23)CC1 (stereo not drawn) [Compound 244] | < 10
42 | CC(C)N1CCN[C@@](C)(c2ccc(-c3cc4c(N5CCN(C(=O)C6CC6)CC5)ccnn4c3)cc2)C1 [Compound 569] | < 10
43 | CCOC1(c2ccc(-c3cc4c(N5CCN(C(=O)O[C@@H](C)CF)CC5)ccnn4c3)nc2)CCN(C(C)C)CC1 [Compound 866] | < 10
44 | C[C@H]1CNC[C@@H](c2ccc(-c3cc4c(N5CCN(C(=O)C6CC6)CC5)ccnn4c3)cc2)O1 [Compound 165] | 10 to 50
45 | O=C(C1CC1)N1CCN(c2ccnn3cc(-c4ccc([C@H]5CCNC[C@H]5F)cc4)cc23)CC1 [Compound 175] | 10 to 50
46 | NC(c1ccc(-c2cc3c(N4CCN(C(=O)C5CC5)CC4)ccnn3c2)cc1)C1CCCO1 (stereo not drawn) [Compound 769] | < 10
47 | CCN1CCC(c2ccc(-c3cc4c(N5CCN(C(=O)C6CC(O)(c7ccccc7)C6)CC5)ccnn4c3)cc2)CC1 (stereo not drawn) [Compound 446] | < 10
48 | CCN1CCN(c2cc(F)c(-c3cc4c(N5CCN(C(=O)C6CC6)CC5)ccnn4c3)c(F)c2)CC1 [Compound 362] | 10 to 50
49 | O=C(C1CC1)N1CCN(c2ccnn3cc(-c4ccc(N5CCC6(CNC6)C5)cc4)cc23)CC1 [Compound 198] | < 10
50 | COCC(N)c1ccc(-c2cc3c(N4CCN(C(=O)C5CC5)CC4)ccnn3c2)cc1 (stereo not drawn) [Compound 758] | < 10
51 | CCN1CCC(c2ccc(-c3cc4c(N5CCN(C(=O)C6CC6c6ccc(Cl)cc6)CC5)ccnn4c3)cc2)C1 (stereo not drawn) [Compound 444] | 10 to 50
52 | CCN1CCN(c2ccc(-c3cc4c(N5CCN(C(=O)C6(c7cccs7)CC6)CC5)ccnn4c3)cc2)CC1 [Compound 438] | 10 to 50
53 | O=C(C1CC1)N1CCN(c2ccnn3cc(-c4ccc(N5CCNCC5=O)cc4)cc23)CC1 [Compound 151] | > 50
54 | CCNC(=O)N1CCN(c2ccnn3cc(-c4ccc([C@H]5CNCCO5)cc4)cc23)CC1 [Compound 141] | 10 to 50
55 | N#C[C@H]1CC[C@H](C(=O)N2CCN(c3ccnn4cc(-c5ccc(C6CNCC6F)cc5)cc34)CC2)CC1 (stereo partly drawn) [Compound 378] | < 10
56 | CC(C)N[C@H]1CCc2cc(-c3cc4c(N5CCN(C(=O)C6CC6)CC5)ccnn4c3)ccc21 [Compound 472] | < 10
57 | CCNC(=O)N1CCN(c2ccnn3cc(-c4ncc(N5CCN(C(C)C)CC5)cn4)cc23)CC1 [Compound 553] | 10 to 50
